Earlier results as cited in patent US20060234982A1 (priority 2003, published 2006).

How the values were obtained:
HIV-1 = settings: in vitro, with recombinant soluble CD4, castanospermine or recombinant interferon-α
HBV = settings: variety of cell types
[1] = not given; remark: listed apart in the source
[2] = relative to tenofovir, HIV in culture

SMILES: Cc1cn([C@H]2C[C@H](N=[N+]=[N-])[C@@H](CO)O2)c(=O)[nH]c1=O [AZT, 3′-azido, 3′-deoxythymidine]
- antiviral activity in combination (HIV-1): synergistic antiviral activity

SMILES: CC(C)OC(=O)[C@H](C)N[P@](=O)(CO[C@H](C)Cn1cnc2c(N)ncnc21)Oc1ccccc1 [GS-7340, 9-[(R)-2-[[(S)-[[(S)-1-(isopropoxycarbonyl)ethyl]amino]phenoxyphosphinyl]methoxy]propyl]adenine]
- fold more effective than tenofovir against HIV in culture (HIV; [2]): 100 fold
- times more effective than tenofovir against HIV in culture (HIV; [2]): 1000 times
- S-configuration (at phosphorus) diastereomer more effective than R-configuration diastereomer (HIV; relative to the diastereomer with R-configuration at P): 10 fold
- effectiveness against HIV in vitro (HIV; variety of cell types): effective
- effectiveness against HBV in vitro (HBV): effective
- hydrolysis in lymphatic tissue (dogs and rhesus monkeys): selectively hydrolyzed inside lymphatic tissue
- plasma stability (dogs and rhesus monkeys): stable in plasma
- oral bioavailability (dogs and rhesus monkeys, oral): 20%
- tissue distribution (in vivo and in vitro characterization, selective intracellular activation): preferential distribution in lymphatic tissues

SMILES: C[C@H](Cn1cnc2c(N)ncnc21)OCP(=O)(O)O [Tenofovir, (R)-9-(2-phosphonylmethoxypropyl)adenine]
- pKa [1]: 3.8
